# Test results as given in patent US6479447B2, “Bleaching composition for dry cleaning containing transition metal bleach catalyst” (Unilever Home & Personal Care USA, division of Conopco, Inc., priority 1999, dated 2002).
# Assay: log P, partitioning between octanol and water
# Assay type: physicochemical
# Conditions: octanol/water at 25° C.; usually determined with hexafluorophosphate as counterion
# Procedure: To the skilled person, log P is a well known coefficient for describing the partitioning of a compound between octanol and water at ambient temperature (25° C.). Whereby P is the concentration of the bleach catalyst in octanol divided by the concentration of bleach catalyst in water. (Leo et al. Chem Rev 1971, 71, 525). The log P is usually determined in the presence of hexafluorophophate as the counterion.
row,Molecule,log P
1,"CN1CCN(C)CCN(C)CC1.CN1CCN(C)CCN(C)CC1.F[P-](F)(F)(F)(F)F.F[P-](F)(F)(F)(F)F.[Mn+4].[Mn+4].[O-2].[O-2].[O-2] [Catalyst 1, Dimanganese-tris-μ-oxo-bis(1,4,7-trimethyl-1,4,7-triazacyclononane) bis(Hexafluorophosphate)]",less than 3
2,"Dimanganese-tris-μ-oxo-bis(2-octyl-1,4,7-trimethyl-1,4,7-triazacyclononane) bis(Hexasulphate) [Catalyst 2]",more than 3
